Data on one compound can be found in patent US7323303B2, “Modified β-lactamases and uses thereof” (priority 2003, dated 2008).

One test concerns the target T1, wild-type β-lactamase I (Bacillus cereus, UniProt P00809).
T1 construct: made in house; host or cells: B. subtilis 1A304 (φ105MU331)
Briefly: Spectrophotometric substrate hydrolysis, steady-state kinetics. The class given is biochemical. Conditions: 50 mM potassium phosphate buffer pH 7.0, 20° C. How it is done:
(§1) The hydrolytic activities of the wild-type β-lactamase I, E166C and E166Cf mutants towards penicillin G, penicillin V and ampicillin (Sigma) were monitored by the spectrophotometric method. The spectrophotometric measurements were performed on a Perkin Elmer Lambda Bio20 UV/Vis spectrometer. Substrate hydrolysis was monitored at a fixed wavelength: 235 nm for ampicillin, 232 nm for penicillin G and penicillin V. The initial rate of substrate hydrolysis occurring within 5 min was determined in duplicate at each of 6 different substrate concentrations in 50 mM potassium phosphate buffer (pH 7.0) at 20° C. The initial rates determined were then treated as described in Reference 5 to calculate the Michaelis constants (Km) and turnover numbers (kcat) using non-linear regression analysis (equation 1):
(§2) [formula] where v is the initial rate of substrate hydrolysis, Vmax the maximum rate of reaction, [S] the initial substrate concentration, Km the Michaelis constant and kcat=Vmax/[Enzyme].
(§3) The measured steady-state kinetic parameters for hydrolysis of penicillin G, penicillin V and ampicillin by the wild-type β-lactamase I, E166C and E166Cf mutants are summarized in Table 1.

Test [1] deals with T2, E166C mutant of β-lactamase I (Bacillus cereus, UniProt P00809, E185C).
T2 construct: made in house; host or cells: B. subtilis 1A304 (φ105MU331)
T2 sequence (P00809 28-306 E185C): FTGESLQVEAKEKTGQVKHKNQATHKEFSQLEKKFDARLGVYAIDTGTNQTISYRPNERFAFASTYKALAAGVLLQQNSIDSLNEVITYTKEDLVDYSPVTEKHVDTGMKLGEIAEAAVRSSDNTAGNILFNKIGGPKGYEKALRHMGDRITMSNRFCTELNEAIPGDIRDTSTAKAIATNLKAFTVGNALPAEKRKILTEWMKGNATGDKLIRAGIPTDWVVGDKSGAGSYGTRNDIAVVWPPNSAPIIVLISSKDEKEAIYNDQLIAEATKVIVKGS
The description is as above. It is filed as biochemical. Conditions: 50 mM potassium phosphate buffer pH 7.0, 20° C. How it is done: as §1, §2, §3

T1 sequence (P00809 28-306): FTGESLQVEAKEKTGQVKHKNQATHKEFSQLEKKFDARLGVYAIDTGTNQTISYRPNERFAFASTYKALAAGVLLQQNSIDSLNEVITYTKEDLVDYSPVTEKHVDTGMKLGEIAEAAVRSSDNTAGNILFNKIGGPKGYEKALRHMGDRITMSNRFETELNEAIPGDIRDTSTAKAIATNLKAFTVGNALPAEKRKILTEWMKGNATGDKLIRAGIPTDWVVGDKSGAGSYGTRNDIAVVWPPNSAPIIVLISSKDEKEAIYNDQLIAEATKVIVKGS

On to `CC1(C)S[C@@H]2[C@H](NC(=O)Cc3ccccc3)C(=O)N2[C@H]1C(=O)O` [Penicillin G, penicillin G], for which, on wild-type β-lactamase I, the Km was determined as 48 ± 3 µM and the kcat was determined as 2612 ± 320 s⁻¹. Also, in test [1], the Km was determined as 72 ± 3 µM and the kcat was found to be 2.07 ± 0.02 s⁻¹.
